# Reference: ChEMBL document CHEMBL6182943, “Identification of 4'-Thiouridine as an Orally Available Antiviral Agent Targeting Both RdRp and NiRAN Functions of SARS-CoV-2 Nsp12” (J Med Chem, 2025)
# Calls of active or inactive are those of the source. No cut-off for these calls is given here.
# Tests used:
# [1] = Cytotoxicity against African green monkey Vero cells assessed as reduction in cell viability incubated for 48 hrs by MTT assay; assay type: toxicity, cell-based; conditions: chlorocebus sabaeus
# [2] = system: SARS-CoV-2; experiment: Antiviral activity against SARS-CoV-2 infected in african green monkey Vero cells assessed as reduction in number of spike-protein expressing cells pre-infected for 30 mins followed by compound addition and measured 48 hrs post-infection by DAPI staining based immunofluorescence analysis; assay type: functional, organism-based; conditions: Severe acute respiratory syndrome coronavirus 2, Vero
# [3] = target: Replicase polyprotein 1ab (Severe acute respiratory syndrome coronavirus 2) (UniProt P0DTD1); experiment: (§1) Inhibition of SARS-CoV-2 Nsp12-Nsp7-Nsp8-2 RNA dependent RNA polymerase activity using partially double stranded RNA as substrate assessed as generation of abortive transcripts by mis-incorporation into RNA at 100 uM incubated for 30 mins in presence of UTP and GTP/CTP by gel electrophoresis based primer extension assay
# [4] = target: Replicase polyprotein 1ab (Severe acute respiratory syndrome coronavirus 2) (UniProt P0DTD1); experiment: as §1, with “UTP” for “UTP and GTP/CTP”
# [5] = target: Replicase polyprotein 1ab (Severe acute respiratory syndrome coronavirus 2) (UniProt P0DTD1); experiment: as §1, with “as” for “as generation of abortive transcripts by”, “by measuring increase in abortive transcripts length” for “at 100 uM”, “ATP” for “UTP and GTP/CTP”; conditions: dose 1-100 µM
# [6] = system: Severe acute respiratory syndrome coronavirus 2; experiment: Inhibition of SARS-CoV-2 Nsp9/Nsp12 using 5'-pppLS10 as substrate assessed as inhibition of NiRAN-mediated UMPylation of Nsp9 at 1 to 100 uM preincubated for 5 mins followed by UTP and [alpha-32P]UTP addition and measured after 10 mins by phosphorimaging based SDS-PAGE analysis; conditions: dose 1-100 µM, time 15.0 min
# [7] = target: Replicase polyprotein 1ab (Severe acute respiratory syndrome coronavirus 2) (UniProt P0DTD1); experiment: as §1, with “ATP” for “UTP and GTP/CTP”
# [8] = target: Replicase polyprotein 1ab (Severe acute respiratory syndrome coronavirus 2) (UniProt P0DTD1); experiment: (§2) Inhibition of SARS-CoV-2 Nsp12-Nsp7-Nsp8-2 RNA dependent RNA polymerase activity using partially double stranded RNA as substrate assessed as accumulation of abortive transcripts incubated for 30 mins in presence of UTP,ATP and GTP/CTP by gel electrophoresis based primer extension assay; conditions: dose 2.5-250 µM
# [9] = system: Severe acute respiratory syndrome coronavirus 2; experiment: Inhibition of SARS-CoV-2 Nsp9/Nsp12 using 5'-pppLS10 as substrate assessed as inhibition of NiRAN-mediated AMPylation of Nsp9 at 1 to 100 uM preincubated for 5 mins followed by ATP and [alpha-32P]ATP addition and measured after 10 mins by phosphorimaging based SDS-PAGE analysis; conditions: dose 1-100 µM, time 15.0 min
# [10] = system: Severe acute respiratory syndrome coronavirus 2; experiment: Inhibition of SARS-CoV-2 Nsp9/Nsp12 using 5'-pppLS10 as substrate assessed as inhibition of NiRAN-mediated RNAylation of Nsp9 by measuring increase in compound-conjugated Nsp9 incubated for 1 hrs by coomassie blue staining based SDS-PAGE analysis; conditions: dose 1-100 µM
# [11] = Selectivity index, ratio of CC50 for cytotoxicity against African green monkey Vero cells to EC50 for antiviral activity against SARS-CoV-2 infected in african green monkey Vero cells assessed as reduction in number of spike-protein expressing cells; assay type: toxicity, cell-based; conditions: read-out: Ratio CC50/EC50
# [12] = target: Replicase polyprotein 1ab (Severe acute respiratory syndrome coronavirus 2) (UniProt P0DTD1); experiment: as §1, with “ATP” for “UTP”
# [13] = target: Replicase polyprotein 1ab (Severe acute respiratory syndrome coronavirus 2) (UniProt P0DTD1); experiment: as §2, with “transcripts at 2.5 to 250 uM” for “transcripts”; conditions: dose 2.5-250 µM
# [14] = target: Replicase polyprotein 1ab (Severe acute respiratory syndrome coronavirus 2) (UniProt P0DTD1); experiment: Inhibition of SARS-CoV-2 Nsp12-Nsp7-Nsp8-2 RNA dependent RNA polymerase activity using partially double stranded RNA as substrate assessed as reduction in RNA elongation at 1 to 100 uM incubated for 30 mins in presence of UTP and GTP/CTP by gel electrophoresis based primer extension assay; conditions: dose 1-100 µM
# [15] = system: Severe acute respiratory syndrome coronavirus 2; experiment: Inhibition of SARS-CoV-2 Nsp9/Nsp12 using 5'-pppLS10 as substrate assessed as inhibition of NiRAN-mediated RNAylation of Nsp9 by measuring increase in compound-conjugated Nsp9 at 1 to 100 uM incubated for 1 hrs by coomassie blue staining based SDS-PAGE analysis; conditions: dose 1-100 µM
# [16] = system: SARS-CoV-2; experiment: (§3) Antiviral activity against SARS-CoV-2 infected in hACE2 expressing female B6.Cg-Tg(K18-ACE2)2Prlmn/J mouse model assessed as reduction in body weight loss at 50 mg/kg, po preadministered twice daily for 4 days at 8 hrs interval with four hours before and after viral challenge and measured 14 days post viral challenge; assay type: functional, organism-based; conditions: Severe acute respiratory syndrome coronavirus 2, time 14.0 day
# [17] = system: SARS-CoV-2; experiment: as §3, with “8” for “14”; assay type: functional, organism-based; conditions: Severe acute respiratory syndrome coronavirus 2, time 8.0 day
# [18] = system: SARS-CoV-2; experiment: Antiviral activity against SARS-CoV-2 infected in hACE2 expressing female B6.Cg-Tg(K18-ACE2)2Prlmn/J mouse model assessed as survival at 50 mg/kg, po preadministered twice daily for 4 days at 8 hrs interval with four hours before and after viral challenge and measured 14 days post viral challenge relative to control; assay type: functional; conditions: Severe acute respiratory syndrome coronavirus 2, 336 h, time 14 day
# [19] = system: SARS-CoV-2; experiment: Antiviral activity against SARS-CoV-2 infected in African green monkey Vero cells assessed as reduction in viral N protein level at 0.1 uM measured after 1 day by Western blot analysis; assay type: functional, organism-based; conditions: Severe acute respiratory syndrome coronavirus 2
compound,measurement,setting,value
CC(C)OC(=O)[C@H](C)N[P@](=O)(OC[C@H]1S[C@@H](n2ccc(=O)[nH]c2=O)[C@H](O)[C@@H]1O)Oc1ccccc1,CC50 at 48 h,[1],> 100 µM
same,EC50,[2],> 100 µM
C[C@H](Cn1cnc2c(N)ncnc21)OCP(=O)(O)OP(=O)(O)OP(=O)(O)O,inhibition,[3],Active; Compound Produced A Primer Extension Of ~22 Nucleotides Similar To Atp Starvation Condition
same,inhibition,[4]; 100 uM,Active; Compound Produced A Primer Extension Of ~22 Nucleotides Similar To Atp Starvation Condition
O=c1ccn([C@@H]2S[C@H](COP(=O)(O)OP(=O)(O)OP(=O)(O)O)[C@@H](O)[C@H]2O)c(=O)[nH]1,inhibition,[5],Dose-dependent-effect; Transcripts Remained Below 27 Nucleotides
same,inhibition,[6],Active
same,inhibition,[7]; 100 uM,Active; Compound Led To Rna Products Longer Than 20 Nucleotides But Did Not Reach 27-Mer Rna
same,inhibition,[8],Dose-dependent-effect
same,inhibition,[9],Active
same,inhibition,[10],Dose-dependent-effect
Nc1ccn([C@@H]2S[C@H](CO)[C@@H](O)[C@H]2O)c(=O)n1,CC50 at 48 h,[1],> 100 µM
same,selectivity ratio,[11],> 41.7
same,EC50,[2],2.4 µM
C[C@@]1(F)[C@H](O)[C@@H](COP(=O)(O)OP(=O)(O)OP(=O)(O)O)O[C@H]1n1ccc(=O)[nH]c1=O,inhibition,"[7]; dose 100.0 µM, time 30.0 min",inactive
same,inhibition,[12],inactive
N#C[C@@]1(c2ccc3c(N)ncnn23)O[C@H](COP(=O)(O)OP(=O)(O)OP(=O)(O)O)[C@@H](O)[C@H]1O,inhibition,[13],Minimal_effect
same,inhibition,[14],Not active; Formation Of Full-Length 40-Mer Product Is Still Prevented
same,inhibition,"[4]; dose 100.0 µM, time 30.0 min",Not active; Formation Of 27-Mer Product Observed
Nc1ncnc2c1ncn2[C@@H]1S[C@H](CO)[C@@H](O)[C@H]1O,CC50 at 48 h,[1],94.3 µM
same,selectivity ratio,[11],10.7
same,EC50,[2],8.82 µM
CC(C)C(=O)OC[C@H]1S[C@@H](n2ccc(=O)[nH]c2=O)[C@H](O)[C@@H]1O,CC50 at 48 h,[1],> 100 µM
same,selectivity ratio,[11],> 3.73
same,EC50,[2],26.8 µM
C[C@@]1(F)[C@H](O)[C@@H](COP(=O)(O)OP(=O)(O)OP(=O)(O)O)O[C@H]1n1cnc2c(=O)[nH]c(N)nc21,inhibition,[15],Active
Cc1cn([C@@H]2S[C@H](CO)[C@@H](O)[C@H]2O)c(=O)[nH]c1=O,CC50 at 48 h,[1],> 100 µM
same,EC50,[2],> 100 µM
CC(C)C(=O)OC[C@H]1O[C@@H](n2cc/c(=N\O)[nH]c2=O)[C@H](O)[C@@H]1O [MOLNUPIRAVIR],Activity,[16],Active
same,Activity,[17],Active
same,survival at 50 mg/kg,[18],60%
Nc1nc2c(ncn2[C@@H]2S[C@H](CO)[C@@H](O)[C@H]2O)c(=O)[nH]1,CC50 at 48 h,[1],> 100 µM
same,selectivity ratio,[11],> 2.07
same,EC50,[2],48.3 µM
O=c1nc(NO)ccn1[C@@H]1O[C@H](CO)[C@@H](O)[C@H]1O [N-HYDROXYCYTIDINE],CC50 at 48 h,[1],38.6 µM
same,selectivity ratio,[11],37.5
same,EC50,[2],1.03 µM
same,Activity,[19],Active
